According to patent publication US20140336182A1, “Aurora Kinase Modulators and Method of Use” (Amgen Inc., priority 2013, published 2014):

Test system: HeLa cells
Assay: HeLa cell 24 hr ploidy assay (DNA content)
Type: cell-based
Settings: HeLa cells, 4N ploidy, average, read-out: 24h_4NPloidy EC50_IP (uM Avg)
Summary of the method: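 DNA content measured by Hoechst 33342 nuclear staining (0.5 ug/ml, 45 min RT) and high-content imaging of fixed HeLa cells after 24 h compound exposure in 0.25% DMSO. Fractions of 4N and >4N cells fitted to dose curves giving EC50 IP, EC50 transit, Max and Min.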

EC50 | Structure (SMILES)
0.005 µM | COc1cnc2c(Sc3ccc(Nc4nnc(N5CCN6CCCC[C@@H]6C5)c5ccccc45)cc3)ccnc2c1 [compound 584]
0.021 µM | c1ccc(-c2nnc(Nc3ccc(Sc4ccnc5cccnc45)cc3)c3ccccc23)cc1 [compound 309]

Same assay, conditions: Homo sapiens, HeLa, 4N ploidy, average, read-out: 24h_4NPloidy EC50_IP (uM Avg)

EC50 | Structure (SMILES)
0.305 µM | COCc1cccc(-c2nnc(Nc3ccc(Oc4ccnc5cc(OC)cnc45)cc3)c3ccccc23)n1 [compound 120]
0.07 µM | COc1cnc2c(Nc3ccc(Nc4nnc(-c5ccccc5)c5ccccc45)cc3)ccnc2c1 [Example 40, N′-(7-methoxy-1,5-naphthyridin-4-yl)-N4-(4-phenylphthalazin-1-yl)benzene-1,4-diamine]
0.124 µM | COc1cc2nccc(Oc3ccc(Nc4nnc(-c5cccc(C)n5)c5ccccc45)cc3)c2cn1 [compound 110]
0.181 µM | COc1cncc(-c2nnc(Nc3ccc(Oc4ccnc5cc(OC)cnc45)cc3)c3ccccc23)c1 [compound 129]
0.053 µM | Cc1ccc(-c2nnc(Nc3ccc(Oc4ccnc5cc(C#N)ccc45)cc3)c3ccccc23)nc1 [compound 122]
0.075 µM | COc1cnc2c(Oc3ccc(Nc4nnc(-c5ccc(OC)nc5)c5ccccc45)cc3)ccnc2c1 [compound 158]
> 1.2 µM | COc1cc2nccc(Oc3ccc(Nc4nnc(-c5cccc(C)n5)c5ccccc45)cn3)c2cn1 [compound 127]
0.039 µM | CCc1cc(-c2ccccc2)nnc1Nc1ccc(Oc2ncnc3cc(OC)c(OC)cc23)cc1 [compound 148]
0.022 µM | COc1cnc2c(Oc3ccc(Nc4nnc(-c5ccc(Cl)s5)c5ccccc45)cc3)ccnc2c1 [compound 140, 4-(5-chloro-2-thienyl)-N-(4-((7-(methyloxy)-1,5-naphthyridin-4-yl)oxy)phenyl)-1-phthalazinamine]
0.033 µM | COc1cc2nccc(Oc3ccc(Nc4nnc(-c5ccc(C(C)(C)C)cc5)c5ccccc45)cc3)c2cc1OC [compound 106]

Same assay, conditions: Homo sapiens, HeLa, HeLa cells, 4N ploidy, average, read-out: 24h_4NPloidy EC50_IP (uM Avg)

Structure (SMILES) | EC50
COc1cnc2c(Oc3ccc(Nc4nnc(-c5ccc6sc(C)nc6c5)c5ccccc45)cc3)ccnc2c1 [compound 195, 4-(2-methyl-1,3-benzothiazol-5-yl)-N-(4-((7-(methyloxy)-1,5-naphthyridin-4-yl)oxy)phenyl)-1-phthalazinamine] | 0.197 µM
COc1cnc2c(Oc3ccc(Nc4nnc(-c5ccc6cc[nH]c6c5)c5ccccc45)cc3)ccnc2c1 [compound 206] | 0.002 µM
COc1cnc2c(Oc3ccc(Nc4nnc(-c5ccc6c(c5)OC(F)(F)O6)c5ccccc45)cc3)ccnc2c1 [compound 291] | 0.045 µM
COc1ccc2c(Sc3ccc(Nc4nnc(-c5ccccc5)c5ccccc45)cc3)ccnc2c1 [compound 331] | 0.021 µM
COc1cnc2c(Oc3ccc(Nc4nnc(-c5cc(C)c(C)s5)c5ccccc45)cc3)ccnc2c1 [compound 260] | 0.002 µM
COCCOc1ccc2c(Sc3ccc(Nc4nnc(-c5ccc(Cl)cc5)c5ccccc45)cc3)ccnc2c1 [compound 431] | 0.01 µM
Cc1noc(-c2cc3nccc(Sc4ccc(Nc5nnc(-c6ccc(Cl)cc6)c6ccccc56)cc4)c3s2)n1 [compound 323] | 0.131 µM
CCc1cc(-c2ccc(C)cc2)nnc1Nc1ccc(Sc2ccnc3cc(OC)cnc23)cc1 [compound 322] | 0.017 µM
Cc1ccc(-c2nnc(Nc3ccc(Sc4ccnc5ccncc45)cc3)c3ccccc23)nc1 [compound 433] | 0.017 µM
N#Cc1ccc2c(Oc3ccc(Nc4nnc(-c5ccc(Cl)cc5)c5ccccc45)cc3)ccnc2c1 [compound 242] | 0.019 µM
COc1cnc2c(Oc3ccc(Nc4nnc(-c5ccc(Cl)c(OCCS(C)(=O)=O)c5)c5ccccc45)cc3)ccnc2c1 [Example 394, 4-(4-Chloro-3-(2-(methylsulfonyl)ethoxy)phenyl)-N-(4-(7-methoxy-1,5-naphthyridin-4-yloxy)phenyl)phthalazin-1-amine] | 0.045 µM
COc1cnc2c(Oc3ccc(Nc4nnc(-c5ccc6[nH]ccc6c5)c5ccccc45)cc3)ccnc2c1 [compound 167] | 0.027 µM
COc1cnc2c(Oc3ccc(Nc4nnc(-c5ccc6c(c5)OCO6)c5ccccc45)cc3)ccnc2c1 [compound 306, 4-(1,3-benzodioxol-5-yl)-N-(4-((7-(methyloxy)-1,5-naphthyridin-4-yl)oxy)phenyl)-1-phthalazinamine] | 0.006 µM
Cc1ccc(-c2nnc(Nc3ccc(Sc4ccnc5ccoc45)cc3)c3ccccc23)cc1F [Example 398, 4-(3-Fluoro-4-methylphenyl)-N-(4-(furo[3,2-b]pyridin-7-ylthio)phenyl)phthalazin-1-amine] | 0.009 µM
COc1cc2c(Oc3ccc(Nc4nnc(-c5ccccc5)c5ccccc45)cc3)ccnc2cc1OCc1ccccc1 [compound 326] | 0.06 µM
COc1cnc2c(Sc3ccc(Nc4nnc(C#N)c5ccccc45)cc3)ccnc2c1 [Example 404, 4-(4-(7-Methoxy-1,5-naphthyridin-4-ylthio)phenylamino)phthalazine-1-carbonitrile] | 0.063 µM
COc1cnc2c(Sc3ccc(Nc4nnc(N5CCCCC5)c5ccccc45)cc3)ccnc2c1 [compound 346] | 0.016 µM

Other lines, results leading:

EC50 | Structure (SMILES)
< 0.0023 µM | COCCn1ccc2nccc(Sc3ccc(Nc4nnc(-c5cc(C)cs5)c5ccccc45)cc3)c21 [compound 470]
0.008 µM | COc1ccc(-c2nnc(Nc3ccc(Sc4ccnc5cccnc45)cc3)c3ccccc23)cn1 [compound 509]
0.397 µM | FC(F)(F)Oc1ccc2c(Oc3ccc(Nc4nnc(-c5ccccc5)c5ccccc45)cc3)ccnc2c1 [compound 496]
0.029 µM | COc1cc(F)cc2nccc(Sc3ccc(Nc4nnc(-c5cc(C)cs5)c5ccccc45)cc3)c12 [compound 440]
0.049 µM | COc1cnc2c(Sc3ccc(Nc4nnc(N5CCC(F)(F)CC5)c5ccccc45)cc3)ccnc2c1 [compound 531]
0.147 µM | N#Cc1ccc2nccc(Oc3ccc(Nc4nnc(-c5ccccc5)c5ccccc45)cc3)c2c1 [compound 592]
0.01 µM | Clc1ccc(-c2nnc(Nc3ccc(Sc4ccnc5cc[nH]c45)cc3)c3ccccc23)cc1 [compound 463]
0.026 µM | COc1cnc2c(Sc3ccc(Nc4nnc(N5CCC(F)CC5)c5ccccc45)cc3)ccnc2c1 [compound 557]
0.016 µM | COc1cc(F)cc2nccc(Sc3ccc(Nc4nnc(-c5ccc(Cl)cc5)c5ccccc45)cc3)c12 [compound 438]
0.227 µM | COc1cnc2c(Oc3ccc(Nc4nnc(-c5cc(C)cs5)c5ccccc45)cc3OC)ccnc2c1 [compound 567]
> 1.2 µM | COc1cnnc(Nc2ccc(Oc3ccnc4cc(OC)cnc34)cc2)c1 [compound 456]
0.016 µM | COc1cnc2c(Sc3ccc(Nc4nnc(N5CCN(C(C)=O)CC5)c5ccccc45)cc3)ccnc2c1 [compound 608]
> 1.2 µM | CN(c1ccc(Oc2ccnc3ccc(=O)[nH]c23)cc1)c1nnc(-c2ccc(Cl)cc2)c2ccccc12 [compound 500]
0.001 µM | COc1cnc2c(Sc3ccc(Nc4nnc(-c5ccc6c(c5)OCO6)c5ccccc45)cc3F)ccnc2c1 [compound 522]

Same assay, conditions: Homo sapiens, HeLa, HeLa cells, average, read-out: 24h_4NPloidy EC50_IP (uM Avg)

EC50 | Structure (SMILES)
0.15 µM | COc1ccc2c(C(=O)c3ccc(Nc4nnc(-c5ccc(Cl)cc5)c5ccccc45)cc3)ccnc2c1 [compound 615]
0.26 µM | COc1cnc2c([S+]([O-])c3ccc(Nc4nnc(-c5ccc(F)cc5)c5ccccc45)cc3)ccnc2c1 (stereo not drawn) [Example 410, 4-(4-fluorophenyl)-N-(4-(7-methoxy-1,5-naphthyridin-4-ylsulfinyl)phenyl)phthalazin-1-amine]
